Measured values: US6737383B1, “Herbicidal oxadiazolidines” (priority 1999, dated 2004)

What was measured:
[1] = test system: corn; assay: Test B pre/postemergence corn; assay type: in vivo, Zea mays; details: for Corn plant response rating: scale of 0 to 10 where 0 is no effect and 10 is complete control
How it was run: (§1)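 Test chemicals in a non-phytotoxic solvent mixture with surfactant were sprayed preemergence onto planted seeds and postemergence onto plants 2 to 18 cm tall (1- to 4-leaf stage). After twelve to sixteen days in a greenhouse, injury was visually rated against untreated controls from 0 (no effect) to 10 (complete control).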

[2] = test system: soybean; assay: Test B pre/postemergence soybean; assay type: in vivo, Glycine max; details: for Soybean plant response rating: scale of 0 to 10 where 0 is no effect and 10 is complete control
How it was run: as §1

[3] = test system: sugar beet; assay: Test B pre/postemergence sugar beet; assay type: in vivo, Beta vulgaris; details: for Sugarbeets plant response rating: scale of 0 to 10 where 0 is no effect and 10 is complete control
How it was run: as §1

[4] = test system: wild oat; assay: Test B pre/postemergence wild oat; assay type: in vivo, Avena fatua; details: for Wild oats plant response rating: scale of 0 to 10 where 0 is no effect and 10 is complete control
How it was run: as §1

[5] = test system: giant foxtail; assay: Test B pre/postemergence giant foxtail; assay type: in vivo, Setaria faberii; details: for Giant foxtail plant response rating: scale of 0 to 10 where 0 is no effect and 10 is complete control
How it was run: as §1

[6] = test system: smallflower flatsedge; assay: Test B flood test smallflower flatsedge; assay type: in vivo, Cyperus difformis
How it was run: (§2)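 Plants were grown to the 2-leaf stage before treatment with test chemical, then held in a greenhouse for twelve to sixteen days. Injury was visually rated against untreated controls on a 0–10 scale, where 0 is no effect and 10 is complete control.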

[7] = test system: duck salad; assay: Test B flood test duck salad; assay type: in vivo, Heteranthera limosa
How it was run: as §2

[8] = test system: velvetleaf; assay: Test B pre/postemergence velvetleaf; assay type: in vivo, Abutilon theophrasti; details: for Velvetleaf plant response rating: scale of 0 to 10 where 0 is no effect and 10 is complete control
How it was run: as §1

[9] = test system: cocklebur; assay: Test B pre/postemergence cocklebur; assay type: in vivo, Xanthium strumarium; details: for Cocklebur plant response rating: scale of 0 to 10 where 0 is no effect and 10 is complete control
How it was run: as §1

[10] = test system: blackgrass; assay: Test B pre/postemergence blackgrass; assay type: in vivo, Alopecurus myosuroides; details: for Blackgrass plant response rating: scale of 0 to 10 where 0 is no effect and 10 is complete control
How it was run: as §1

[11] = test system: rape; assay: Test B pre/postemergence rape; assay type: in vivo, Brassica napus; details: for Rape plant response rating: scale of 0 to 10 where 0 is no effect and 10 is complete control
How it was run: as §1

[12] = test system: morningglory; assay: Test B pre/postemergence morningglory; assay type: in vivo, Ipomoea hederacea; details: for Morningglory plant response rating: scale of 0 to 10 where 0 is no effect and 10 is complete control
How it was run: as §1

[13] = test system: surinam grass; assay: Test B pre/postemergence surinam grass; assay type: in vivo, Brachiaria decumbens; details: for B. signalgrass plant response rating: scale of 0 to 10 where 0 is no effect and 10 is complete control
How it was run: as §1

[14] = test system: wheat; assay: Test B pre/postemergence wheat; assay type: in vivo, Triticum aestivum; details: for Wheat plant response rating: scale of 0 to 10 where 0 is no effect and 10 is complete control
How it was run: as §1

[15] = test system: purple nutsedge; assay: Test B pre/postemergence purple nutsedge; assay type: in vivo, Cyperus rotundus; details: for Nutsedge plant response rating: scale of 0 to 10 where 0 is no effect and 10 is complete control
How it was run: as §1

[16] = test system: crabgrass; assay: Test B pre/postemergence crabgrass; assay type: in vivo, Digitaria sanguinalis; details: for Crabgrass plant response rating: scale of 0 to 10 where 0 is no effect and 10 is complete control
How it was run: as §1

[17] = Postemergence, Rate 125 g/ha, scale 0 to 10, 0 is no effect, 10 is complete control
[18] = Postemergence, Rate 250 g/ha, scale 0 to 10, 0 is no effect, 10 is complete control
[19] = Preemergence, Rate 62 g/ha, scale 0 to 10 (0 no effect, 10 complete control)
[20] = Rate 500 g/ha, Postemergence, scale 0 to 10, 0 no effect, 10 complete control
[21] = Rate 62 g/ha, flood test species, Pre-emergence, visual evaluation after twelve to sixteen days
[22] = Rate 125 g/ha, under heading Pre-emergence, flood test species, visual evaluation after twelve to sixteen days
[23] = Rate 250 g/ha, Pre-emergence, flood-test species, scale 0 to 10, 0 is no effect, 10 is complete control
[24] = Rate 500 g/ha, Pre-emergence, flood test species, scale 0 to 10 (0 no effect, 10 complete control)

CC(C)N(C(=O)n1oc(=O)n(N2CCOCC2)c1=O)c1ccc(F)cc1F [Compound 384]
Plant response rating, Corn [1, 17]: 0 | Plant response rating, Corn [1, 18]: 0 | Plant response rating, Corn [1, 19]: 0 | Corn plant response rating ([1]; Preemergence, Rate 500 g/ha): 5 | Corn plant response rating ([1]; Rate 62 g/ha, Postemergence): 0 | Plant response rating, Corn [1, 20]: 0 | Plant response rating, Soybean [2, 17]: 2 | Plant response rating, Soybean [2, 18]: 3 | Plant response rating, Soybean [2, 19]: 0 | Soybean plant response rating (0 to 10 scale) ([2]; Preemergence, Rate 125 g/ha): 0 | Soybean plant response rating ([2]; Preemergence, Rate 250 g/ha): 0 | Soybean plant response rating ([2]; Preemergence, Rate 500 g/ha): 3 | Soybean plant response rating ([2]; Rate 62 g/ha, Postemergence): 1 | Plant response rating, Soybean [2, 20]: 3 | Plant response rating, Sugarbeets [3, 17]: 0 | Plant response rating, Sugarbeets [3, 18]: 0 | Plant response rating, Sugarbeets [3, 19]: 0 | Sugarbeets plant response rating (0 to 10 scale) ([3]; Preemergence, Rate 125 g/ha): 0 | Sugarbeets plant response rating ([3]; Preemergence, Rate 250 g/ha): 0 | Sugarbeets plant response rating ([3]; Preemergence, Rate 500 g/ha): 2 | Sugarbeets plant response rating ([3]; Rate 62 g/ha, Postemergence): 0 | Plant response rating, Sugarbeets [3, 20]: 0 | Plant response rating, Wild oats [4, 17]: 0 | Plant response rating, Wild oats [4, 18]: 0 | Plant response rating, Wild oats [4, 19]: 0 | Wild oats plant response rating (0 to 10 scale) ([4]; Preemergence, Rate 125 g/ha): 0 | Wild oats plant response rating ([4]; Preemergence, Rate 250 g/ha): 6 | Wild oats plant response rating ([4]; Preemergence, Rate 500 g/ha): 6 | Wild oats plant response rating ([4]; Rate 62 g/ha, Postemergence): 0 | Plant response rating, Wild oats [4, 20]: 4 | Plant response rating, Giant foxtail [5, 17]: 8 | Plant response rating, Giant foxtail [5, 18]: 9 | Plant response rating, Giant foxtail [5, 19]: 9 | Giant foxtail plant response rating (0 to 10 scale) ([5]; Preemergence, Rate 125 g/ha): 10 | Giant foxtail plant response rating ([5]; Preemergence, Rate 250 g/ha): 10 | Giant foxtail plant response rating ([5]; Preemergence, Rate 500 g/ha): 10 | Giant foxtail plant response rating ([5]; Rate 62 g/ha, Postemergence): 4 | Plant response rating, Giant foxtail [5, 20]: 9 | Plant response rating, S. Flatsedge (0 to 10 scale, 0 is no effect, 10 is complete control) [6, 21]: 0 | S. Flatsedge plant response rating (0 to 10 scale, 0 is no effect, 10 is complete control) [6, 22]: 0 | S. Flatsedge plant response rating [6, 23]: 0 | S. Flatsedge plant response rating [6, 24]: 0 | Plant response rating, Ducksalad (0 to 10 scale, 0 is no effect, 10 is complete control) [7, 21]: 0 | Ducksalad plant response rating (0 to 10 scale, 0 is no effect, 10 is complete control) [7, 22]: 0 | Ducksalad plant response rating [7, 23]: 0 | Ducksalad plant response rating [7, 24]: 0 | Plant response rating, Velvetleaf [8, 17]: 0 | Plant response rating, Velvetleaf [8, 18]: 0 | Plant response rating, Velvetleaf [8, 19]: 0 | Velvetleaf plant response rating (0 to 10 scale) ([8]; Preemergence, Rate 125 g/ha): 0 | Velvetleaf plant response rating ([8]; Preemergence, Rate 250 g/ha): 1 | Velvetleaf plant response rating ([8]; Preemergence, Rate 500 g/ha): 3 | Velvetleaf plant response rating ([8]; Rate 62 g/ha, Postemergence): 0 | Plant response rating, Velvetleaf [8, 20]: 0 | Plant response rating, Cocklebur [9, 17]: 0 | Plant response rating, Cocklebur [9, 18]: 0 | Plant response rating, Cocklebur [9, 19]: 0 | Cocklebur plant response rating (0 to 10 scale) ([9]; Preemergence, Rate 125 g/ha): 0 | Cocklebur plant response rating ([9]; Preemergence, Rate 250 g/ha): 0 | Cocklebur plant response rating ([9]; Preemergence, Rate 500 g/ha): 0 | Cocklebur plant response rating ([9]; Rate 62 g/ha, Postemergence): 0 | Plant response rating, Cocklebur [9, 20]: 0 | Plant response rating, Blackgrass [10, 17]: 4 | Plant response rating, Blackgrass [10, 18]: 9 | Plant response rating, Blackgrass [10, 19]: 0 | Blackgrass plant response rating (0 to 10 scale) ([10]; Preemergence, Rate 125 g/ha): 0 | Blackgrass plant response rating ([10]; Preemergence, Rate 250 g/ha): 3 | Blackgrass plant response rating ([10]; Preemergence, Rate 500 g/ha): 7 | Blackgrass plant response rating ([10]; Rate 62 g/ha, Postemergence): 3 | Plant response rating, Rape [11, 17]: 0 | Plant response rating, Rape [11, 18]: 0 | Plant response rating, Rape [11, 19]: 0 | Rape plant response rating (0 to 10 scale) ([11]; Preemergence, Rate 125 g/ha): 0 | Rape plant response rating ([11]; Preemergence, Rate 250 g/ha): 0 | Rape plant response rating ([11]; Preemergence, Rate 500 g/ha): 0 | Rape plant response rating ([11]; Rate 62 g/ha, Postemergence): 0 | Plant response rating, Morningglory [12, 17]: 0 | Plant response rating, Morningglory [12, 18]: 0 | Plant response rating, Morningglory [12, 19]: 0 | Morningglory plant response rating (0 to 10 scale) ([12]; Preemergence, Rate 125 g/ha): 0 | Morningglory plant response rating ([12]; Preemergence, Rate 250 g/ha): 0 | Morningglory plant response rating ([12]; Preemergence, Rate 500 g/ha): 2 | Morningglory plant response rating ([12]; Rate 62 g/ha, Postemergence): 0 | Plant response rating, Morningglory [12, 20]: 0 | Plant response rating, B. signalgrass [13, 17]: 3 | Plant response rating, B. signalgrass [13, 18]: 6 | Plant response rating, B. signalgrass [13, 19]: 0 | B. signalgrass plant response rating (0 to 10 scale, 0 is no effect, 10 is complete control) ([13]; Preemergence, Rate 125 g/ha): 0 | B. signalgrass plant response rating ([13]; Preemergence, Rate 250 g/ha): 3 | B. signalgrass plant response rating ([13]; Preemergence, Rate 500 g/ha): 7 | B. signalgrass plant response rating ([13]; Rate 62 g/ha, Postemergence): 0 | Plant response rating, B. signalgrass [13, 20]: 7 | Plant response rating, Wheat [14, 17]: 0 | Plant response rating, Wheat [14, 18]: 2 | Plant response rating, Wheat [14, 19]: 0 | Wheat plant response rating (0 to 10 scale) ([14]; Preemergence, Rate 125 g/ha): 0 | Wheat plant response rating ([14]; Preemergence, Rate 250 g/ha): 2 | Wheat plant response rating ([14]; Preemergence, Rate 500 g/ha): 3 | Wheat plant response rating ([14]; Rate 62 g/ha, Postemergence): 0 | Plant response rating, Wheat [14, 20]: 3 | Plant response rating, Nutsedge [15, 17]: 0 | Plant response rating, Nutsedge [15, 18]: 0 | Plant response rating, Nutsedge [15, 19]: 0 | Nutsedge plant response rating (0 to 10 scale) ([15]; Preemergence, Rate 125 g/ha): 0 | Nutsedge plant response rating ([15]; Preemergence, Rate 250 g/ha): 0 | Nutsedge plant response rating ([15]; Preemergence, Rate 500 g/ha): 0 | Nutsedge plant response rating ([15]; Rate 62 g/ha, Postemergence): 0 | Plant response rating, Nutsedge [15, 20]: 0 | Plant response rating, Crabgrass [16, 17]: 7 | Plant response rating, Crabgrass [16, 18]: 8 | Plant response rating, Crabgrass [16, 19]: 6 | Crabgrass plant response rating (0 to 10 scale) ([16]; Preemergence, Rate 125 g/ha): 6 | Crabgrass plant response rating ([16]; Preemergence, Rate 250 g/ha): 9 | Crabgrass plant response rating ([16]; Preemergence, Rate 500 g/ha): 9 | Crabgrass plant response rating ([16]; Rate 62 g/ha, Postemergence): 1 | Plant response rating, Crabgrass [16, 20]: 8
